Results taken from ChEMBL document CHEMBL5356996, “Discovery of Novel NLRP3 Inflammasome Inhibitors Composed of an Oxazole Scaffold Bearing an Acylsulfamide” (ACS Med Chem Lett, 2023).
pIC50: −log10 of the molar value. Values after ≈ are worked out from the molar mass of the structure shown.

Columns and labels:
[1] = molecular target: T1, NACHT, LRR and PYD domains-containing protein 3 (Homo sapiens, UniProt Q96P20); assay: Inhibition of NLRP3 in LPS/nigericin-induced human THP-1 cells assessed as inhibition of IL-1beta production pretreated with LPS for 3 hrs followed by incubation with compound for 15 mins and later stimulated with nigericin for 90 mins by AlphaLISA assay; format: cell-based
T1 sequence (Q96P20 whole entry, the tested form may be a part): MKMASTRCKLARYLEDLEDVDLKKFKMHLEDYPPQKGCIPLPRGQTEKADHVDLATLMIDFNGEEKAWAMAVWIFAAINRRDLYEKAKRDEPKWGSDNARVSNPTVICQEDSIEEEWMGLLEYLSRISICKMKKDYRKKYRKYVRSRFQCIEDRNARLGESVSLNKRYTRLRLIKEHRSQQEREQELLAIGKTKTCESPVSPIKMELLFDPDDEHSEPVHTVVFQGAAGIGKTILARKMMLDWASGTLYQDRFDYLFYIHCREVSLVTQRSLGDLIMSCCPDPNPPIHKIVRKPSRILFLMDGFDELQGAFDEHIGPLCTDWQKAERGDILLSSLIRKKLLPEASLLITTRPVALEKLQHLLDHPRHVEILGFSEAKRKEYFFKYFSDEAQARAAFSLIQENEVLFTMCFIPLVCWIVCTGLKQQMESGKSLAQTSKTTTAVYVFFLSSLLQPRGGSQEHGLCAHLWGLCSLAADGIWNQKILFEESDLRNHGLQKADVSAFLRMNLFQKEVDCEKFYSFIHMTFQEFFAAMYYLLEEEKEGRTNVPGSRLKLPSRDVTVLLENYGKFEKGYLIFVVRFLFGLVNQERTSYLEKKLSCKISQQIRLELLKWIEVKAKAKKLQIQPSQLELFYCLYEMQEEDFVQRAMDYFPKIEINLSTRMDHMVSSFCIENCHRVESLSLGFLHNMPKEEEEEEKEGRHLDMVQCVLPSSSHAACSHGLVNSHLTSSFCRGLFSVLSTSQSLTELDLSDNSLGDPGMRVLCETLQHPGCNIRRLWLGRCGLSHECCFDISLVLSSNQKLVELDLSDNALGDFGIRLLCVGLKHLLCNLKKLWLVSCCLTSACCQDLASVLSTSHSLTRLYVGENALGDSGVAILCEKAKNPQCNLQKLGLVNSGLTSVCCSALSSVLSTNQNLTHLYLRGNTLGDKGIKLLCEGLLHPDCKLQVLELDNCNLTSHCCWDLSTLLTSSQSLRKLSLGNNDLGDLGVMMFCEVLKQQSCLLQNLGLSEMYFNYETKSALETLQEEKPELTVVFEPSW

[2] = molecular target: T1, NACHT, LRR and PYD domains-containing protein 3; assay: Inhibition of NLRP3 in human whole blood assessed as inhibition of IL-1beta production pretreated with LPS for 3 hrs followed by incubation with compound for 0.5 hrs and later incubated with ATP for 1.5 hrs by AlphaLISA assay; format: tissue-based
[3] = Lipophilicity, logD of the compound; format: physicochemical; conditions: octanol/water
[4] = Plasma protein binding in human by equilibrium dialysis method; format: ADME, cell-free; conditions: read-out: PPB (converted)
[5] = Solubility of the compound in FaSSIF at pH 6.5 incubated for 4 to 24 hrs by LC/MS analysis; format: physicochemical; conditions: time 4-24 hrs
[6] = Apparent permeability of the compound in human Caco-2 cells at 25 umol/L incubated for 2 hrs by LC/MS/MS analysis; format: ADME, cell-based; conditions: dose 25 µmol/L
[7] = molecular target: NLR family CARD domain-containing protein 4 (Homo sapiens, UniProt Q9NPP4); assay: Inhibition of NLRC4 (unknown origin) in PMA-differentiated human THP-1 cells assessed as inhibition of IL-1 beta production pretreated for 15 mins followed by flagellin stimulation and measured after 18 hrs by AlphaLISA assay; format: cell-based
Chain of NLR family CARD domain-containing protein 4 (Q9NPP4 whole entry, the tested form may be a part): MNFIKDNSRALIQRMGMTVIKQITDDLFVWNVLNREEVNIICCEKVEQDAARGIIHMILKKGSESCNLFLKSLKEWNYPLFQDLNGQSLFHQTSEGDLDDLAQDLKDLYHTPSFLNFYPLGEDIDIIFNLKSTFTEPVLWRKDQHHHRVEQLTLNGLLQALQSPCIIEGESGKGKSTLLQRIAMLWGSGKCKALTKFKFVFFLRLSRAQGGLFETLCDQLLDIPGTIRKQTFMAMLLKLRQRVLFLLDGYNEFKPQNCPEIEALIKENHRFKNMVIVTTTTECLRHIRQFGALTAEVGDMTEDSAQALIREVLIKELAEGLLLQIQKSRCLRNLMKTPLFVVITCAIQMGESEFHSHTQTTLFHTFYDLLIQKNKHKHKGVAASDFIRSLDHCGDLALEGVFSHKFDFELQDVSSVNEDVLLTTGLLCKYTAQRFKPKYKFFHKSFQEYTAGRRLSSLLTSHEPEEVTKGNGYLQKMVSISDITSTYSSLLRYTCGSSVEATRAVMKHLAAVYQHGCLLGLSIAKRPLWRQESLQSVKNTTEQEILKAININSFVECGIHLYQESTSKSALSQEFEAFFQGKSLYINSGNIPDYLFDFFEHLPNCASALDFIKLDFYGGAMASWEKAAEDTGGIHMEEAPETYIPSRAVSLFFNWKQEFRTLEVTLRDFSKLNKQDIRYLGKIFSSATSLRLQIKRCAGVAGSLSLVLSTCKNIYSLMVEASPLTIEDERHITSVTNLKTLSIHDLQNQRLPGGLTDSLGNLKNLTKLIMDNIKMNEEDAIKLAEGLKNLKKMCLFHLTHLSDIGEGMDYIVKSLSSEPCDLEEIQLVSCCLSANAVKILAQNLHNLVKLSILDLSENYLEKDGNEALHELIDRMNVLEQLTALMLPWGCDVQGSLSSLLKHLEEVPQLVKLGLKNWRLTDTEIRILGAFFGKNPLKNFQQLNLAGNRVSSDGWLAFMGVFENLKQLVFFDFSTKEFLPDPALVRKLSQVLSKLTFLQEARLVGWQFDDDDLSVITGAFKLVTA

[8] = Plasma protein binding in rat by equilibrium dialysis method; format: ADME, cell-free; conditions: read-out: PPB (converted)
[9] = Plasma protein binding in mouse by equilibrium dialysis method; format: ADME, cell-free; conditions: read-out: PPB (converted)
[10] = Metabolic stability in human liver microsomes assessed as compound remaining incubated for 60 mins; format: ADME, Microsome; conditions: read-out: Stability
[11] = Metabolic stability in rat liver microsomes assessed as compound remaining incubated for 60 mins; format: ADME, Microsome; conditions: read-out: Stability
[12] = Metabolic stability in mouse liver microsomes assessed as compound remaining incubated for 60 mins; format: ADME, Microsome; conditions: read-out: Stability
[13] = Metabolic stability in dog liver microsomes assessed as compound remaining incubated for 60 mins; format: ADME, Canis lupus familiaris, Microsome; conditions: read-out: Stability
[14] = Mean residence time in Sprague-Dawley rat at 0.3 mg/kg, iv; format: ADME, organism-based; conditions: in vivo
[15] = Total body clearance in Sprague-Dawley rat at 0.3 mg/kg, iv measured for 25 hrs; format: ADME, organism-based; conditions: in vivo
[16] = Volume of distribution at steady state in Sprague-Dawley rat at 0.3 mg/kg, iv measured for 25 hrs; format: ADME, organism-based; conditions: in vivo, read-out: Vdss
[17] = Cmax in Sprague-Dawley rat at 1 mg/kg, po measured for 25 hrs; format: ADME, organism-based; set-up: dose 1 mg/kg, time 25 hrs, route po; conditions: in vivo
[18] = Mean residence time in Sprague-Dawley rat at 1 mg/kg, po; format: ADME, organism-based; conditions: in vivo
[19] = Oral bioavailability in Sprague-Dawley rat at 1 mg/kg measured for 25 hrs; format: ADME, organism-based; conditions: in vivo
Cytochrome P450 3A4 = Cytochrome P450 3A4 (Homo sapiens, UniProt P08684); assay: Inhibition of CYP3A4 in human liver microsomes using testosterone and midazolam as substrates by LC-MS/MS analysis; format: ADME, Microsome
Chain of Cytochrome P450 3A4 (P08684 whole entry): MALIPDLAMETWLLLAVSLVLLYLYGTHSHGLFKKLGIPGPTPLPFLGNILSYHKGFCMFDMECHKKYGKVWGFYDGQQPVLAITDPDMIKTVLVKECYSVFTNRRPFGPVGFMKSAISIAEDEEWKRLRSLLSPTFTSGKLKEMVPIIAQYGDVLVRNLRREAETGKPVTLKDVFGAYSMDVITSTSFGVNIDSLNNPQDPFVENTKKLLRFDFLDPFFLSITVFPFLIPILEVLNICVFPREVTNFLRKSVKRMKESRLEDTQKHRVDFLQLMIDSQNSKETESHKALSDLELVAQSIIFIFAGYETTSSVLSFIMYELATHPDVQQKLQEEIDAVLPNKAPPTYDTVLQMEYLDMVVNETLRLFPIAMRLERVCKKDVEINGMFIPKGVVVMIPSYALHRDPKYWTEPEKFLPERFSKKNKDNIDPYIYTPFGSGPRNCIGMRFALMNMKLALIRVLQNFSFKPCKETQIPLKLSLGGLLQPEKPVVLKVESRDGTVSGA

Mus musculus [20] = assay: Anti-inflammatory activity against LPS-stimulated C57BL/6J mouse assessed as reduction in IL-1beta level administered orally pretreated for 0.5 hrs before LPS challenge and measured after 4 hrs by ELISA; format: functional, organism-based; conditions: dose 1-10 mg/kg, route po, time 4.5 hrs
Mus musculus [21] = assay: Anti-inflammatory activity against adriamycin-induced glomerulonephritis BALB/c mouse model assessed as decrease in urine albumin-to-creatinine ratio administered orally for 2 weeks and measured for 24 hrs; format: functional, organism-based; conditions: dose 30-300 mg/kg, route po, time 15.0 day
THP-1 = assay: cells; conditions: Homo sapiens

SMILES | pIC50 [1] | logD [3] | solubility [5] | other results
CCOC(=O)c1cnc(Nc2c3c(cc4c2CCC4)CCC3)s1 | < 4.52 | – | – | –
COC(=O)CN1CC(=O)N(c2c3c(cc4c2CCC4)CCC3)C1=O | < 4.52 | – | – | –
O=C(O)c1cnc(Nc2c3c(cc4c2CCC4)CCC3)o1 | 5.62 | 1.8 | 442 µM (≈ 126 µg/mL) | Papp at 2 h, 25 µM [6]: 4 ×10⁻⁶ cm/s
Cc1ccc2c(c1Nc1nc(C(=O)NS(=O)(=O)N(C)C)co1)CCC2 | – | 2.3 | – | pIC50 [2]: 4.74
CCOC(=O)c1nnc(Nc2c3c(cc4c2CCC4)CCC3)o1 | 5.05 | – | – | –
CCOC(=O)c1cnc(Nc2c3c(cc4c2CCC4)CCC3)[nH]1 | < 4.52 | – | – | –
CNC(=O)c1cnc(Nc2c3c(cc4c2CCC4)CCC3)o1 | < 4.52 | – | 43.9 µM (≈ 13.1 µg/mL) | –
CCOC(=O)c1cnc(Nc2c3c(cc4c2CCC4)CCC3)o1 | – | 4.6 | 11.1 µM (≈ 3.47 µg/mL) | –
CN1CCN(C(=O)c2cnc(Nc3c4c(cc5c3CCC5)CCC4)o2)S1(=O)=O | – | 3.8 | 18.1 µM (≈ 7.28 µg/mL) | Papp at 2 h, 25 µM [6]: 15.5 ×10⁻⁶ cm/s
COC(=O)[C@@H]1CCCN1C(=O)Nc1c2c(cc3c1CCC3)CCC2 | < 5.00 | – | – | –
COC(=O)[C@H]1CCCN1C(=O)Nc1c2c(cc3c1CCC3)CCC2 | < 5.00 | – | – | –
COC(=O)c1ccnc(Nc2c3c(cc4c2CCC4)CCC3)n1 | < 4.52 | – | – | –
CN(C)S(=O)(=O)NC(=O)c1cnc(Nc2c3c(cc4c2CCC4)CCC3)o1 | – | 2.3 | > 475 µM | Papp at 2 h, 25 µM [6]: 1.2 ×10⁻⁶ cm/s
NC(=O)c1cnc(Nc2c3c(cc4c2CCC4)CCC3)o1 | < 4.52 | – | 45.6 µM (≈ 12.9 µg/mL) | –
CS(=O)(=O)NC(=O)c1cnc(Nc2c3c(cc4c2CCC4)CCC3)o1 | 5.17 | 2.1 | 475 µM (≈ 172 µg/mL) | Papp at 2 h, 25 µM [6]: 0.13 ×10⁻⁶ cm/s
Cc1ccc(C(F)(F)F)cc1Nc1nc(C(=O)NS(=O)(=O)N2CCCN(S(C)(=O)=O)CC2)co1 | – | 2.4 | – | fraction unbound [4]: 0.011
CC(=O)N1CCCN(S(=O)(=O)NC(=O)c2coc(Nc3cc(C(F)(F)F)ccc3C)n2)CC1 | – | 2.2 | – | fraction unbound [4]: 0.018
CN(C)S(=O)(=O)NC(=O)c1coc(Nc2c3c(cc4c2CCC4)CCC3)n1 | – | 2.8 | 436 µM (≈ 170 µg/mL) | pIC50 [2]: 5.11; Papp at 2 h, 25 µM [6]: 48.5 ×10⁻⁶ cm/s
Cc1ccc(C2CCC2)cc1Nc1nc(C(=O)NS(=O)(=O)N(C)C)co1 | – | 2.9 | – | –
CC(C)c1ccc2c(c1Nc1nc(C(=O)NS(=O)(=O)N(C)C)co1)CCC2 | – | 2.9 | – | pIC50 [2]: 5.24

The next lines start with results.

pIC50 [1] | logD [3] | solubility [5] | SMILES | other results
7.42 | 2.2 | – | Cc1ccc(C(F)(F)F)cc1Nc1nc(C(=O)NS(=O)(=O)N2CCOCC2)co1 | pIC50 [2]: 5.10; fraction unbound [4]: < 0.001
– | 3.1 | – | Cc1ccc(C(F)(F)F)cc1Nc1nc(C(=O)NS(=O)(=O)N2CCCCC2)co1 | fraction unbound [4]: < 0.001
6.29 | 2 | – | Cc1ccc(C)c(Nc2nc(C(=O)NS(=O)(=O)N(C)C)co2)c1 | pIC50 [2]: 4.96
– | 3 | – | Cc1ccc(C(C)(C)C)cc1Nc1nc(C(=O)NS(=O)(=O)N(C)C)co1 | pIC50 [2]: 5.11
6.85 | 2.7 | – | Cc1ccc(C(C)C)cc1Nc1nc(C(=O)NS(=O)(=O)N(C)C)co1 | pIC50 [2]: 5.17
– | 2.4 | 444 µM (≈ 199 µg/mL) | Cc1ccc(C(F)(F)F)cc1Nc1nc(C(=O)NS(=O)(=O)N2CCCOCC2)co1 | fraction unbound [4]: 0.009; Papp at 2 h, 25 µM [6]: 27.8 ×10⁻⁶ cm/s; pIC50 [7]: < 4.52; fraction unbound [8]: 0.034; fraction unbound [9]: 0.062; remaining at 1 h [10]: 71.2%; remaining at 1 h [11]: 90.3%; remaining at 1 h [12]: 45.5%; remaining at 1 h [13]: 90%; MRT [14]: 4.7 h; clearance [15]: 1 mL/min/kg; Vd [16]: 0.28 L/kg; Cmax [17]: 3.8 µM; MRT [18]: 6.3 h; bioavailability [19]: 121%; pIC50 (Cytochrome P450 3A4): < 5.00; Activity (Mus musculus [20]): Dose-Dependent Effect; Activity (Mus musculus [21]): Dose-Dependent Effect; pIC50 (THP-1): 7.55
– | 2.4 | – | Cc1ccc(C(F)(F)F)cc1Nc1nc(C(=O)NS(=O)(=O)N(C)C)co1 | fraction unbound [4]: 0.004
– | 3.3 | – | Cc1ccc(C(F)(F)F)cc1Nc1nc(C(=O)NS(=O)(=O)N(C)C(C)C)co1 | fraction unbound [4]: < 0.001
– | 2.1 | – | Cc1ccc(C(F)(F)F)nc1Nc1nc(C(=O)NS(=O)(=O)N(C)C)co1 | pIC50 [2]: 5.33
